The values that follow come from article PMC9380258, “Primary and secondary functions of HLA-E are determined by stability and conformation of the peptide-bound complexes” (Cell Reports, 2022).

Assay [1] deals with HLA-E. More on the design: method as in Walters et al. 2020. As to conditions: sandwich ELISA (3D12 anti-HLA-E capture, anti-β2M detection) after peptide exchange; normalised signal as percentage of positive control VL9 signal; previously published; ref Walters et al. 2020; cited from earlier work.
Assay [2] deals with HLA-E. The class given is binding, human. As to conditions: for Tm (°C) 12M, HLA-E-β2M-peptide complex thermal stability: pH 8.
A further assay addresses HLA-E*01:03 (Homo sapiens, UniProt P13747). In words: SEC-SAXS of peptide-refolded HLA-E*01:03 complexes.

Like-named read-outs stand apart in the source and are kept apart here.

For EIEVDDDLIQK [EK11], in the assay on HLA-E [1], the “ELISA Rank (%VL9 binding)” value was “minimal binding”.

With EKQRESREK [EK9], the “ELISA Rank (%VL9 binding)” value in the assay with HLA-E [1] is recorded as under 10%.

Turning to “QAISPRTLN [Neg Ctrl pep, reference compound]”, the “Tm (°C) 12M, HLA-E-β2M-peptide complex thermal stability” value (from here on “Tm (°C) 12M”) in the assay on HLA-E [2] is 31.8 °C. For the same sequence, the “ELISA Rank (%VL9 binding)” value with HLA-E [1] is reported as 0.3%.

Take RLPAKAPLL [Mtb44]: the “Tm (°C) 12M” value in the assay with HLA-E [2] was found to be 50.6 °C. Besides, the “ELISA Rank (%VL9 binding)” value with HLA-E [1] is given as 97%.

Consider RMAATAQVL [Mtb14], for which the “Tm (°C) 12M” value in the assay with HLA-E [2] was 37.8 °C. For the same sequence, the “Molecular envelope Vol %change” value on HLA-E*01:03 was −32%. Further, the “ELISA Rank (%VL9 binding)” value in the assay on HLA-E [1] is reported as 48%.

For RMYNPTNIL [RL9SIV], in the assay with HLA-E [2], the “Tm (°C) 12M” value worked out at 35.2 °C. For the same sequence, at HLA-E*01:03, the “Molecular envelope Vol %change” value is on record as −34%. For the same sequence, the “ELISA Rank (%VL9 binding)” value in the assay with HLA-E [1] is recorded as 22%.

On to RMYSPTSIL [RL9HIV], for which the “Tm (°C) 12M” value in the assay on HLA-E [2] turned out to be 38.2 °C. Moreover, the “Molecular envelope Vol %change” value on HLA-E*01:03 (% change in model volume following 120 μM excess peptide addition) is listed as −42%. Also, in the assay on HLA-E [1], the “ELISA Rank (%VL9 binding)” value is 43%.

On to SQAPLPCVL [BZLF1], for which, in the assay with HLA-E [2], the “Tm (°C) 12M” value was found to be 37.7 °C. Also, at HLA-E*01:03, the “Dmax (Å), maximum dimension” value is listed as 108 Å and the “Molecular envelope Vol (Å3)” value was 107,950 Å3. Moreover, the “ELISA Rank (%VL9 binding)” value in the assay with HLA-E [1] is given as 41%.

As for VMAPRTQLL [VL9 P7Q], the “drop in thermal stability” value in the assay with HLA-E [2] was found to be 6.6 °C.

In the case of VMAPRTVLL [VL9, reference compound], in the assay on HLA-E [2], the “Tm (°C) 12M” value was 49.4 °C. Besides, the “ELISA Rank (%VL9 binding)” value in the assay with HLA-E [1] is 100%.
